Data from publication PMC11459966, “Oral pharmacokinetics and efficacy of oral phospholipid remdesivir nucleoside prodrugs against SARS-CoV-2 in mice” (Antimicrobial Agents and Chemotherapy, 2024).
Read-outs that look alike come from different tables or passages of the source. Marks after values point to notes of the source that are not given here.

What was measured:
[1] = system: SARS-CoV-2 B.1.351 (Beta variant); format: in vivo, BALB/c mice; conditions: for level of infectious SARS-CoV-2 in the lung at 2 dpi compared to vehicle: V2043, V2053, V2067 at 27 or 80 mg/kg; for lung infectious units vs limit of detection at 4 dpi: V2043 and V2067 27 and 80 mg/kg, V2053 80 mg/kg once daily, EIDD-2801 100 mg/kg BID, GS-5245 30 mg/kg BID; for Daily dose required to reach below the limit of detection on day 4 post-infection / Molar daily dose required to reach below the limit of detection on day 4 post-infection / reduction of lung infectious units compared to vehicle: mouse, in vivo; for reduction of lung infectious units compared to vehicle: po, 80 mg/kg; for lung titers reduced to below the limit of detection at 4 dpi: GS-5245 10 mg/kg BID, remdesivir 25 mg/kg BID
[2] = system: SARS-CoV-2 B.1.351 (Beta variant); format: in vivo, BALB/c mice; conditions: for reduction of lung titers: mouse, in vivo, po, 80 mg/kg; for effect on lung titers at day 4 post-infection / lung titers vs limit of detection at day 4 post-infection / weight loss at 2 dpi compared to vehicle-treated mice / effect on lung titers at day 2 / effect on lung titers at 4 dpi (significant reduction) / lung histopathology scores at 4 dpi: prophylaxis; for effect on lung titers at day 4 post-infection: 27 mg/kg or 80 mg/kg once daily PO; for antiviral effects on lung titers at 2 dpi: prophylaxis, 8, 27 or 80 mg/kg once daily PO; for lung titers vs limit of detection at day 4 post-infection: once daily PO, for V2067 even at 8 mg/kg; for weight loss at 2 dpi compared to vehicle-treated mice: V2043 80 mg/kg, V2053 27 and 80 mg/kg, V2067 all doses; for weight loss at 2 dpi compared to vehicle-treated mice / effect on lung titers at 4 dpi (significant reduction): obeldesivir 10 or 30 mg/kg BID; for effect on lung titers at day 2: EIDD-2801 100 mg/kg BID, GS-5245 10 or 30 mg/kg BID; for effect on lung titers at day 2 / effect on lung titers at 4 dpi (significant reduction): PO; for effect on lung titers at 4 dpi (significant reduction): comparators: EIDD-2801 100 mg/kg BID, remdesivir 25 mg/kg BID; for lung histopathology scores at 4 dpi: GS-5245 30 mg/kg BID, V2053 8 mg/kg, H&E
[3] = daily dose derived from prophylaxis experiment (Fig. 4)

Row | Structure (SMILES) | level of infectious SARS-CoV-2 in the lung at 2 dpi compared to vehicle [1] | lung infectious units vs limit of detection at 4 dpi [1] | Daily dose required to reach below the limit of detection on day 4 post-infection [1] | Molar daily dose required to reach below the limit of detection on day 4 post-infection [1] | reduction of lung infectious units compared to vehicle [1] | reduction of lung titers [2] | effect on lung titers at day 4 post-infection [2] | antiviral effects on lung titers at 2 dpi [2] | lung titers vs limit of detection at day 4 post-infection [2] | weight loss at 2 dpi compared to vehicle-treated mice [2] | lung titers reduced to below the limit of detection at 4 dpi [1] | effect on lung titers at day 2 [2] | effect on lung titers at 4 dpi (significant reduction) [2] | lung histopathology scores at 4 dpi [2] | Fold ∆ vs MPV (molar daily dose) ([1]; therapeutic model) | Fold ∆ vs OBDV (molar daily dose) ([1]; therapeutic model) | Daily dose required to reach below the limit of detection on day 4 post-infection [2, 3] | Fold ∆ vs MPV (molar daily dose) [2, 3] | Fold ∆ vs OBDV (molar daily dose) [2, 3] | Molar daily dose required to reach below the limit of detection on day 4 post-infection [2, 3]
1 | CCCCCCCCCCCCCCCCCCOC[C@H](COP(=O)(O)OC[C@H]1O[C@@](C#N)(c2ccc3c(N)ncnn23)[C@H](O)[C@@H]1O)OCc1ccccc1 [Compound V2043, 1-O-octadecyl-2-O-benzyl-sn-glyceryl-P-RVn] | significantly reduced | below the limit of detection in all animals | 27 mg/kg | 34.3 µmol/kg | 3.1 log10 | 2.29 Log10 | significantly reduced lung titers | dose-dependent antiviral effects | below the limit of detection in all animals | lost less weight |  |  |  |  |  |  |  |  |  | 
2 | CC(C)C(=O)OC[C@H]1O[C@@](C#N)(c2ccc3c(N)ncnn23)[C@H](O)[C@@H]1O [Obeldesivir GS-5245, reference compound] |  | reduced lung titers to below the limit of detection | 60 mg/kg | 166 µmol/kg |  |  |  |  |  | lost less weight | did not | significantly reduced lung titers | did not | small but significant reductions |  |  |  |  |  | 
3 | CCC(CC)COC(=O)[C@H](C)N[P@](=O)(OC[C@H]1O[C@@](C#N)(c2ccc3c(N)ncnn23)[C@H](O)[C@@H]1O)Oc1ccccc1 [remdesivir] |  |  |  |  |  |  |  |  |  |  | did not |  | did not |  |  |  |  |  |  | 
4 | CC(C)C(=O)OC[C@H]1O[C@@H](n2ccc(NO)nc2=O)[C@H](O)[C@@H]1O [EIDD-2801, reference compound] |  | reduced lung titers to below the limit of detection | 200 mg/kg | 607 µmol/kg |  |  |  |  |  |  |  | significantly reduced lung titers | significantly reduced lung titers |  |  |  |  |  |  | 
5 | CCCCCCCCCCCCCCCCCCOCC(COP(=O)(O)OC[C@H]1O[C@@](C#N)(c2ccc3c(N)ncnn23)[C@H](O)[C@@H]1O)OCc1ccc(C#N)cc1 (stereo partly drawn) [Compound V2067] | significantly reduced | below the limit of detection in all animals | 27 mg/kg | 33.2 µmol/kg | 3.2 log10 | 1.83 Log10 | significantly reduced lung titers | dose-dependent antiviral effects | below the limit of detection in all animals | lost less weight |  |  |  |  | 18.2× | 5.0× | 8^a mg/kg | 61.9× | 16.9× | 9.8 µmol/kg
6 | CCCCCCCCC=CCCCCCCCCOCC(COP(=O)(O)OCC1OC(C#N)(c2ccc3c(N)ncnn23)C(O)C1O)OCc1ccc(OC)c(F)c1 (stereo not drawn) [Compound V2053] | significantly reduced | below the limit of detection in all animals |  |  | 3.0 log10 |  | significantly reduced lung titers | dose-dependent antiviral effects |  | lost less weight |  |  |  | small but significant reductions |  |  |  |  |  | 
